Positions of bridges follow the written chain, without caps; N, C: chain ends. Residues, ends and D or L forms follow the SMILES beside them. Chains are numbered I, II in the order given. No end group written: not given here.
Legend:
[1] = system: human primary dermal fibroblasts; test: Chemotaxis through culture inserts, calcein fluorometry; assay type: cell-based; details: 1 µg / ml, 24 hours of incubation
Procedure: The effect of the compound PDGF2 compound at a concentration of 1 µg / ml on the chemotaxis of HaCaT keratinocytes, and the effect of PDGF2 and PDGF3 at a concentration of 1 µg / ml on the chemotaxis of primary fibroblasts, were investigated. Cells were "starved" in serum-free medium for 24 hours before the experiment. They were then seeded in serum-free medium in culture inserts (Grainer bio one, 8 µm) placed in a 24-well plate. Serum-free medium containing PDGF2 or PDGF3 was added to the wells. Controls in the test were: serum free medium and medium containing 10% FBS. After 24 hours of incubation, the cells were stained with calcein. Cells that migrated through the insert membrane were then detached with trypsin and a fluorometric measurement was performed (excitation wavelength 485, emission wavelength 520 nm).

46BR.1N fibroblasts = assay type: cell-based, human; details: 0.1, 1 and 10 µg / ml after 48h and 72h
Procedure: (§1) The effect of PDGF derivatives (PDGF1, […]1, PDGF2, PGDF3, PDGF2_NE, PDGF2-HTT) on the proliferation of immortalized human 46BR.1N skin fibroblast cells, HaCaT skin keratinocytes (for each peptide 4 experimental cycles for HaCaT and 46BR.1N cells) and primary skin fibroblasts (for each peptide 4 experimental cycles, usingcells isolated from 4 patients) was investigated. Their cytotoxicity to these cells was also checked. The cells were incubated with peptides previously dissolved in double-distilled, sterile water. Proliferation tests (XTT test) were performed at the following concentrations: 0.01, 0.1, 1, 10, 25, 50, 100 and 150 μg / ml. Cytotoxicity tests (LDH) were performed at concentrations of 50, 100 and 150 μg / ml.

HaCaT keratinocytes = assay type: cell-based, human
Procedure: as §1

primary skin fibroblasts = test: XTT proliferation test; assay type: cell-based, human
Procedure: as §1

dendritic cells = assay type: cell-based, human
Procedure: Tests were conducted on human peripheral blood mononuclear cells (PBMC), isolated from "buffy coats" using a ficoll density gradient (histopaque, Sigma). Following two wash steps (in PBS), erythrocyte lysis and cell counting (cell counter, Bio-Rad), the PBMCs were seeded onto a 24-well culture plate at a density of 1 mln cells/1 ml of RPMI 1640 (P/S, 10% FBS)/well. Thecells were then allowed to adapt to the culture conditions for the next 24h. After cell resting, PDGF2 was added to the wells in a final concentration of 1.0 µg/ml, and the cells were incubated for the next 48h under appropriate conditions (37°C, 5% CO2). The untreated cells constituted a negative control, whereas cells stimulated with LPS (1 µg/ml) and PHA (2,5 µg/ml) were a positive control. After incubation, the PBMCs were collected, washed with PBS, counted and prepared for flow cytometry analysis under the following conditions: 10^4 cells/ 100µl were stained with monoclonal, fluorochrome-stained antibodies (anti-CD3, CD4, CD8, CD16, CD56, CD25, CD69, CD71, HLA-DR, CD11c, CD80, CD83). Following 30 min of incubation at RT in the dark, the cells were analyzed using a flow cytometer (LSRFortessa, BD).
An analysis of peptide impact on the activity of immune cells was performed on human PBMCs. These cells were incubated with PDGF2 (1.0 ug/ml) for 48h and the effects of stimulation were evaluated by flow cytometry. […]

[2] = XTT test, 0.01 to 150 µg / ml tested, result in words

`CC[C@H](C)[C@H](NC(=O)[C@H](CC(C)C)NC(=O)[C@@H](N)CCCNC(=N)N)C(=O)N[C@@H](CC(=O)O)C(=O)N[C@@H](CCCNC(=N)N)C(=O)N[C@H](C(=O)N[C@@H](CC(N)=O)C(=O)N[C@@H](C)C(=O)N[C@@H](CC(N)=O)C(=O)N[C@@H](Cc1ccccc1)C(=O)N[C@@H](CC(C)C)C(=O)NCCCC[C@H](NC(=O)[C@H](CCCNC(=N)N)NC(C)=O)C(=O)N[C@H](C(=O)N[C@@H](CCC(=O)O)C(=O)N[C@H](C(=O)N[C@H](C(=O)N[C@@H](CCCNC(=N)N)C(=O)N[C@@H](CCCCN)C(=O)N[C@@H](CCCCN)C(=O)N1CCC[C@H]1C(=O)N[C@H](C(=O)N[C@@H](Cc1ccccc1)C(N)=O)[C@@H](C)CC)C(C)C)[C@@H](C)CC)[C@@H](C)CC)[C@@H](C)O` [PDGF3] (I: Ac-RKIEIVRKKPIF-NH2 / II: H-RLIDRTNANFL; amide I:2-II:C) was tested, and the effect on chemotaxis [1] was “inhibit the chemotaxis”, the “increase in proliferation relative to control” value (46BR.1N fibroblasts) was 20-40% and the “increase in proliferation relative to control” value (HaCaT keratinocytes; 0.1, 1, 10 and 25 µg / ml after 48h, 0.1, 1, 10, 25, 50, 100 and 150 µg / ml after 72h) was 20-120%. For the same molecule, the inhibition of proliferation (HaCaT keratinocytes; [2]) was “does not inhibit the proliferation”, the “increase in proliferation relative to control” value (primary skin fibroblasts; 1, 10, 25 and 50 µg / ml after 48h and 72h) was 10-60% and the inhibition of proliferation (primary skin fibroblasts; [2]) was “does not inhibit the proliferation”.
With “RLIDRTNANFL-NH2 [PDGF2, R^1L^2I^3D^4R^5T^6N^7A^8N^9F^10L^11-NH2]” the “activation of dendritic cells (CD80, CD83)” value (dendritic cells) was “not activated”.

Source: patent EP3546478A1, “NEW PEPTIDE DERIVATIVES OF PLATELET DERIVED GROWTH FACTOR (PDGF), A METHOD FOR THEIR PREPARATION, PHARMACEUTICAL COMPOSITIONS CONTAINING THEM AND APPLICATION OF THESE COMPOSITIONS” (Uniwersytet Gdanski, priority 2018, dated 2019)
